Assay results taken from US12239643B2, “Therapeutic agent for inflammatory diseases, autoimmune diseases, fibrotic diseases, and cancer diseases” (MEIJI SEIKA PHARMA CO., LTD., priority 2018, dated 2025).

Columns and labels:
Type in all cases: cell-based
IL-4 = assay: Cytokine suppression using whole human blood: IL-4 (CytoStim and CD28 antibody stimulus); settings: read-out: IL-4 Inhibitory Activity, Human Whole Blood (Test Example 3)
Protocol: The test compound dissolved in dimethyl sulfoxide was added to a 96-well plate, and RPMI-1640 medium and human peripheral blood containing sodium heparin were added, followed by culture at 37° C. under 5% CO2 for 1 hour. A medium containing only dimethyl sulfoxide instead of the test compound was added to the control well. […]
After collecting the culture supernatant after culturing, the amount of each cytokine was measured by the sandwich ELISA method. […]
The measurement results obtained by measuring the TNFα inhibitory activity and IL-5 inhibitory activity (50% inhibitory concentration) of the test compounds by the above method were evaluated in accordance with the following evaluated basis; A: less than 100 nM, B: 100 nM or more and less than 500 nM, and C: 500 nM or more. In addition, the measurement results obtained by measuring the IL-17A inhibitory activity and IL-4 inhibitory activity (50% inhibitory concentration) of the test compounds were evaluated in accordance with the following evaluated basis; A: less than 500 nM, B: 500 nM or more and less than 5000 nM, and C: 5000 nM or more.

IL-13 = assay: Cytokine suppression using human peripheral blood mononuclear cells: IL-13; settings: human PBMC, CD3 antibody and CD28 antibody; read-out: IL-13 Inhibitory Activity, Human PBMC (Test Example 4)
Protocol: (§1) First, peripheral blood mononuclear cells (PBMC) were separated from whole blood by specific gravity centrifugation. Then, the isolated peripheral blood mononuclear cells were added to RPMI-1640 medium (containing 10% fetal bovine serum, penicillin, streptomycin, L-glutamine, and 2-mercaptoethanol), and cultured in a 96-well plate at 37° C. under 5% CO2 for 0 to 1 hour. The test compound dissolved in dimethyl sulfoxide was added to each well, followed by further culture at 37° C. under 5% CO2 for 1 hour. A medium containing only dimethyl sulfoxide instead of the test compound was added to the control well. […]
(§2) The measurement results obtained by measuring the TNFα inhibitory activity and IL-5 inhibitory activity (50% inhibitory concentration) of the test compounds by the above method were evaluated in accordance with the following evaluated basis; A: less than 10 nM, B: 10 nM or more and less than 100 nM, and C: 100 nM or more. In addition, the measurement results obtained by measuring the IL-17A inhibitory activity, IL-23 inhibitory activity, IL-4 inhibitory activity, and IL-13 inhibitory activity (50% inhibitory concentration) of the test compounds were evaluated in accordance with the following evaluated basis; A: less than 500 nM, B: 500 nM or more and less than 5000 nM, and C: 5000 nM or more.

TNFα = assay: Cytokine suppression using human T cells: TNFα; settings: T-cell; human CD3-positive T cells, CD3 antibody, about 18 hours; read-out: TNFα Inhibitory Activity, Human T-Cell (Test Example 5)
Protocol: First, CD3-positive T cells were separated from whole blood by a magnetic bead method using an EasySep cell separation kit. Separated T cells suspended in RPMI-1640 medium were seeded on a 96-well plate previously coated with CD3 antibody (final concentration 3 μg/mL). Further, CD28 antibody (final concentration 5 ng/mL) was added as an IL-5 production stimulus and an IL-13 production stimulus. A test compound dissolved in dimethyl sulfoxide was added to each well, followed by culture at 37° C. under 5% CO2. The culture was carried out for about 18 hours for the evaluation of the amount of TNFα, and for about 48 hours for the evaluation of the amounts of IL-17A, IL-5, and IL-13. […]
as §2, with “TNFα” for “TNFα inhibitory activity and IL-5”, “IL-5” for “IL-23 inhibitory activity, IL-4”

IL-5 = assay: Cytokine suppression using human peripheral blood mononuclear cells: IL-5; settings: human PBMC, CD3 antibody and CD28 antibody; read-out: IL-5 Inhibitory Activity, Human PBMC (Test Example 4)
Protocol: as §1, §2

Row | SMILES | IC50 (IL-4) [nM] | IC50 (IL-13) [nM] | IC50 (TNFα) [nM] | IC50 (IL-5) [nM]
1 | CCOc1cc([C@@H](CS(C)(=O)=O)N2C(=O)c3cccc(NC(C)=O)c3C2=O)ccc1OC [apremilast, reference compound] | ≥ 5000 | ≥ 5000 | > 100 | > 100
2 | CC(C)(O)C(F)(F)Oc1ccc(-c2nccs2)c2oc(N3CC4CC(C3)N4)nc12 [Example 248, 1-((2-(3,6-Diazabicyclo[3.1.1]heptan-3-yl)-7-(thiazol-2-yl)benzo[d]oxazol-4-yl)oxy)-1,1-difluoro-2-methylpropan-2-ol] | < 500 | < 500 | < 10 | < 10
